From ChEMBL document CHEMBL5321225, “DeepCancerMap: A versatile deep learning platform for target- and cell-based anticancer drug discovery” (Eur J Med Chem, 2023)

Key:
CNE-2 = assay: Antiproliferative activity against human CNE-2 cells assessed as reduction in cell viability; format: functional, cell-based
A549 = assay: Antiproliferative activity against human A549 cells assessed as reduction in cell viability; format: functional, cell-based

`CCCCCCC(=O)Nc1ncc(Cc2ccc(OC)cc2)s1` was tested, and the IC50 (CNE-2) was 2.03 µM and the IC50 (A549) was over 50 µM.
For `Cc1ccc(C(=O)Nc2ncc(Cc3cccc(Cl)c3)s2)cc1`, the IC50 (CNE-2) was 2.99 µM and the IC50 (A549) was over 50 µM.
